Data on 60 compounds can be found in a melting point compilation (Tetko et al.; mined from patent text by program, amines drawn as free bases though some values may be those of a salt).

Bounds are passed on as bounds.

As to `O=S1(=O)c2cccc3cccc(c23)N1CCCN1CCN(c2cccc(F)c2)CC1`, the melting point – broadly, the temperature, or range, at which the solid turns liquid – was found to be 103 °C.

With `CC(C)Nc1nc2c(Br)c(Cl)c(Cl)cc2n1[C@H]1O[C@@H](CO)[C@H](O)[C@@H]1O`, the melting point lay within 221 to 222 °C.

Turning to `COC(=O)C(C)(N)Cc1c[nH]c2ccc(Cl)cc12` (racemic), the melting point was determined as 170 °C.

Turning to `O=[N+]([O-])c1ccc(CNc2cccc(S(=O)(=O)O)c2)cc1`, the melting point was more than 275 °C.

In turn, `COc1ccc2sc(CC3(O)C4CC5CC(C4)CC3C5)nc2c1` (stereo not given) had a melting point of 140 to 142 °C.

Regarding `COc1cccc2c(=O)n(C(C)(C)C(=O)OCC(=O)c3ccccc3)c(=O)[nH]c12`, the melting point is 132 to 133 °C.

`COc1ccc([C@H](Sc2cc(Oc3ccccc3)ccc2N)[C@@H](O)C(=O)O)cc1` displayed a melting point of 151 to 152 °C.

Turning to `O=C(O)c1cccc(-c2cccc3oc(Cc4cccc(C(F)(F)F)c4)nc23)c1`, the melting point was 165 to 166 °C.

`CC(=O)c1nn(-c2c(Cl)cc(C(F)(F)F)cc2Cl)c(NSC(F)(F)F)c1S(C)=O` (stereo not given) registered a melting point of 67 to 102 °C.

On to `COc1cccc(C#Cc2ccccc2)c1`, for which the melting point was found to be 70 °C.

In the case of `Cc1c(C(N)=O)sc2cncc(Oc3ccc(Br)cc3)c12`, the melting point was in the range of 78 to 80 °C.

As for `Cn1cc(C(=O)NCc2ccc(Cl)cc2)c(=O)c2cc(CN3CCOCC3)cc(C#Cc3ccccn3)c21`, the melting point lay within 234 to 236 °C.

`O=C(O)c1ccc(SCC(=O)C23CC4CC(CC(C4)C2)C3)nc1` showed a melting point of 174 to 176 °C.

Compound `CCOC(=O)C1(Nc2ccc(Oc3ccccc3)cc2)CC1` yielded a melting point of 80 °C.

Consider `O=C(OCC1OC(n2cnc3c(NCC(c4ccccc4)c4ccccc4)ncnc32)C(OC(=O)c2ccccc2)C1OC(=O)c1ccccc1)c1ccccc1` (stereo not given), for which the melting point was in the range of 60 to 75 °C.

As for `Cc1nc2cc(NC(=O)c3cc4cc(F)ccc4n3Cc3cccc(F)c3)ccn2c1-c1ccccc1`, the melting point fell in the range of 217 to 218 °C.

The compound `Cc1cc(Nc2ncnc3ccc(-c4ccoc4)cc23)ccc1OCc1ccccn1` had a melting point of 206 to 208 °C.

As for `CS(=O)(=O)Nc1cc([C@@H](O)CNC2CCN(c3ccc(S(=O)(=O)NCC(=O)O)cc3)CC2)ccc1O`, the melting point was 170 to 172 °C.

`CC(C(N)=O)c1ccc(-c2cn3ccccc3n2)cc1` (stereo not given) registered a melting point of 219 to 220 °C.

`Oc1ccc(Nc2ncc3ncc(-c4ccc(O)cc4)cc3n2)cc1` came in with a melting point of more than 268 °C.

In turn, `CC1=C(C(=O)OC2CCCC2)C(c2c(F)cccc2Cl)C(C(=O)n2ccnc2)=C(C)N1` (stereo not given) displayed a melting point of 150 °C.

For the compound `CNC(=O)C1(Nc2nc(Nc3cc4c(cc3OC)CCN(CCOC)CC4)ncc2Cl)CC1`, the melting point is 211 to 215 °C.

Compound `CC(C)(C)OC(=O)Nc1cc(Cl)cc(C(F)(F)F)c1` came in with a melting point of 91 to 92 °C.

Take `CC(C)(C)[S@](=O)N1CCC[C@@H]1c1ccc(Br)cc1`: the melting point was 100 to 112 °C.

For `N#Cc1cc(Cc2cccc(Cl)c2)ccc1N`, the melting point is 84.5 to 85.5 °C.

Regarding `Nc1ccc2nc(-c3ccc4c(c3)OCCO4)ncc2c1`, the melting point was in the range of 179 to 182 °C.

Turning to `Cc1c(-c2ccccc2)oc2c(C(=O)NCCCN3CCN(c4ccc(Cl)cc4)CC3)cccc2c1=O`, the melting point is 200 to 204 °C.

As for `Cc1cn2c(n1)CN=C(c1ccccc1Cl)c1cc(Cl)ccc1-2`, the melting point worked out at 170 °C.

In turn, `O=C(O)C1(C(=O)O)CCC(c2c(-c3ccccc3)[nH]c3ccccc23)CC1` showed a melting point of 196 to 197 °C.

`Cc1cccc(Cl)c1NC(=O)Nc1cc(N[C@H]2CC[C@H](O)CC2)ncn1`: the melting point fell in the range of 149 to 152 °C.

The compound `CCOC(=O)c1c(-c2ccccc2Cl)c2cc(Cl)ccc2n(C)c1=O` yielded a melting point of 139 to 140 °C.

For the compound `Nc1ccc(Sc2ccccc2)cc1F`, the melting point was 48 to 49 °C.

In turn, `O=[N+]([O-])c1c(NCCO)cc(C(O)CSCC(O)c2cc(NCCO)c([N+](=O)[O-])c(NCCO)c2)cc1NCCO` (stereo not given) had a melting point of 157 °C.

Compound `CCN1C(=O)c2ccc(N)cc2C1=O` came in with a melting point of 169 to 171 °C.

As to `O=C(N[C@H]1C=C[C@@H](C(=O)O)C1)c1ccccc1`, the melting point fell in the range of 150 to 151 °C.

In the case of `C[C@]1(N2C(=O)c3cccc(OCc4ccc(CN5CCOCC5)cc4)c3C2=O)CCC(=O)NC1=O`, the melting point is 178 to 180 °C.

Take `CN1CC(CCCl)Oc2cc3ccccc3cc2C1=S` (stereo not given): the melting point fell in the range of 166 to 168 °C.

The compound `COC(=O)c1cc(OC)c(N(C)C(=O)OCc2ccccc2)c(OC)c1` returned a melting point of 130 to 131 °C.

The compound `CCCCC1(CCCC)CS(=O)(=O)c2ccc(N(C)C)cc2[C@H](c2ccc(OCCOCCC(C(=O)O)C(=O)O)cc2)[C@@H]1O` came in with a melting point of 120 °C.

Compound `OCC1OC(n2cnc3c(NC4CCCCC4O)ncnc32)C(O)C1O` (stereo not given) showed a melting point of 210 to 211 °C.

On to `CC(NC(=S)NCC(COC(=O)C(C)(C)C)Cc1ccccc1)c1ccc(NS(C)(=O)=O)cc1` (stereo not given), for which the melting point was in the range of 58 to 62 °C.

Compound `CCOC(=O)C1=C(C)Nc2ccnc(OC(C)C)c2C1c1cccc([N+](=O)[O-])c1` (stereo not given) had a melting point of 180 to 182 °C.

`CCOC(=O)c1c(Nc2ccccc2SC)n[nH]c1C` showed a melting point of 135 to 158 °C.

On to `COc1ccc2c(c1N)C(CCNC(C)=O)CC2` (stereo not given), for which the melting point fell in the range of 94 to 97 °C.

In the case of `COc1ccc(-c2ccccc2C(SCC(=O)c2ccccc2)C(O)C(N)=O)cc1` (stereo not given), the melting point was in the range of 132 to 134 °C.

For the compound `O=C(CNS(=O)(=O)c1ccc2ccccc2c1)NCC(NC(=O)C1CCN(c2ccncc2)CC1)C(=O)C1CCCCN1` (stereo not given), the melting point lay in the range of 200 to 202 °C.

As to `COc1nc(C)nc(C(F)(F)F)c1I`, the melting point lay within 44 to 45 °C.

Consider `COCc1c(-c2ccncc2)[nH]c(-c2ccncc2)c1C(C)=O`, for which the melting point was 154 to 156 °C.

As for `CN(C)S(=O)(=O)c1cccc(-c2ccnc(C(=O)N(O)Cc3ccccc3)c2)c1`, the melting point lay in the range of 110 to 115 °C.

As to `O=C(CCc1cc(C2CCCCC2)c(O)c(C2CCCCC2)c1)OCCCCCCOC(=O)CCc1cc(C2CCCCC2)c(O)c(C2CCCCC2)c1`, the melting point was 113 to 115 °C.

For the compound `COc1ccc2c(c1)CCN(CCc1ccc(NC=O)cc1)C2C` (stereo not given), the melting point fell in the range of 93 to 96 °C.

As for `COC(=O)c1cc(C(=O)OC)cc(N2C(=O)C=CC2=O)c1`, the melting point fell in the range of 186 to 187 °C.

Compound `Nc1nc(OC2CCCC2)c2ncn([C@@H]3C[C@H](CO)[C@@H](O)C3)c2n1` came in with a melting point of 181 to 182 °C.

Take `N#Cc1cc(O)cc2nc(-c3ccc(O)cc3)oc12`: the melting point was in the range of 180 to 183 °C.

Regarding `CC(C)(C)NC(=O)Nc1ccc([N+](=O)[O-])cc1O`, the melting point is 99 to 101 °C.

`COC(=O)C1=C(C)NC(C)=C(C(=O)OCOC(=O)C(C)(C)C)C1c1ccccc1` (single isomer, unassigned; (+)): the melting point was 81 to 82 °C.

Compound `CCOC(=O)c1c(COC(C)=O)[nH]c(=O)n1C(C)=O` yielded a melting point of 138 to 139 °C.

`CC=CCn1c(C(=O)c2cc(C)cc(C#N)c2)c(C(C)C)c(=O)[nH]c1=O` gave a melting point of 177 to 178 °C.

With `Cc1cc(C)cc(Sc2c(C(C)C)c(=O)[nH]c(=O)n2CCC2CC=CC2)c1`, the melting point was 128 to 129 °C.

As to `C=CCSCC(N)C(=O)O` (stereo not given), the melting point is 212 to 213 °C.
